Reference: PubChem BioAssay AID1259407 (Chemical Carcinogenesis Research Information System (CCRIS), 2018)
The source made the active and inactive calls. How the calls were made is not given here.

Test system: CCRIS mutagenicity, Ames/micronucleus/aberration tests
Assay: CCRIS mutagenicity studies
Settings: Test System: AMES SALMONELLA TYPHIMURIUM
[1] = Strain/Indicator: TA100, Metabolic Activation: NONE, Method: STANDARD PLATE
[2] = Strain/Indicator: TA98, Metabolic Activation: NONE, Method: PREINCUBATION
[3] = Strain/Indicator: TA100, Metabolic Activation: NONE, Method: PREINCUBATION
[4] = Strain/Indicator: TA1535, Metabolic Activation: NONE, Method: PREINCUBATION
[5] = Strain/Indicator: TA1537, Metabolic Activation: NONE, Method: PREINCUBATION

SMILES: CC(C)(O)[C@H]1Cc2cc3ccc(=O)oc3cc2O1
- mutagenic call (Strain/Indicator: TA92, Metabolic Activation: NONE, Method: SPOT TEST): active; positive
- mutagenic call (Strain/Indicator: TA92, Metabolic Activation: RAT, LIVER, S-9, AROCLOR 1254, Method: SPOT TEST): active; positive
- mutagenic call (Strain/Indicator: TA94, Metabolic Activation: NONE, Method: SPOT TEST): inactive; negative
- mutagenic call (Strain/Indicator: TA94, Metabolic Activation: RAT, LIVER, S-9, AROCLOR 1254, Method: SPOT TEST): inactive; negative
- mutagenic call (Strain/Indicator: TA97, Metabolic Activation: NONE, Method: SPOT TEST): active; positive
- mutagenic call (Strain/Indicator: TA97, Metabolic Activation: RAT, LIVER, S-9, AROCLOR 1254, Method: SPOT TEST): active; positive
- mutagenic call (Strain/Indicator: TA98, Metabolic Activation: NONE, Method: SPOT TEST): active; positive
- mutagenic call (Strain/Indicator: TA98, Metabolic Activation: RAT, LIVER, S-9, AROCLOR 1254, Method: SPOT TEST): active; positive
- mutagenic call (Strain/Indicator: TA100, Metabolic Activation: NONE, Method: SPOT TEST): active; positive
- mutagenic call [1]: active; positive
- mutagenic call (Strain/Indicator: TA100, Metabolic Activation: RAT, LIVER, S-9, AROCLOR 1254, Method: SPOT TEST): active; positive
- mutagenic call (Strain/Indicator: TA102, Metabolic Activation: NONE, Method: SPOT TEST): inactive; negative
- mutagenic call (Strain/Indicator: TA102, Metabolic Activation: RAT, LIVER, S-9, AROCLOR 1254, Method: SPOT TEST): inactive; negative

SMILES: CN(Cc1cccc(C(F)(F)F)c1)N=O
- mutagenic call (Strain/Indicator: TA1535, Metabolic Activation: HAMSTER, LIVER, S-9, AROCLOR 1254, Method: STANDARD PLATE): active; positive
- mutagenic call (Strain/Indicator: TA1535, Metabolic Activation: NONE, Method: STANDARD PLATE): inactive; negative

SMILES: COc1c(C)c2c(c(O)c1C/C=C(\C)CCC(=O)O)C(=O)OC2
- mutagenic call (Strain/Indicator: TA98, Metabolic Activation: RAT, LIVER, MICROSOMES, PHENOBARBITAL, Method: STANDARD PLATE): inactive; negative
- mutagenic call (Strain/Indicator: TA100, Metabolic Activation: RAT, LIVER, MICROSOMES, PHENOBARBITAL, Method: STANDARD PLATE): inactive; negative

SMILES: O=C(OCC(COC(=O)c1ccccc1)(COC(=O)c1ccccc1)COC(=O)c1ccccc1)c1ccccc1
- mutagenic call (Strain/Indicator: TA97, Metabolic Activation: HAMSTER, LIVER, S-9, AROCLOR 1254 (10 OR 30%), Method: PREINCUBATION): inactive; negative
- mutagenic call (Strain/Indicator: TA97, Metabolic Activation: NONE, Method: PREINCUBATION): inactive; negative
- mutagenic call (Strain/Indicator: TA97, Metabolic Activation: RAT, LIVER, S-9, AROCLOR 1254 (10 OR 30%), Method: PREINCUBATION): inactive; negative
- mutagenic call (Strain/Indicator: TA98, Metabolic Activation: HAMSTER, LIVER, S-9, AROCLOR 1254 (10 OR 30%), Method: PREINCUBATION): inactive; negative
- mutagenic call [2]: inactive; negative
- mutagenic call (Strain/Indicator: TA98, Metabolic Activation: RAT, LIVER, S-9, AROCLOR 1254 (10 OR 30%), Method: PREINCUBATION): inactive; negative
- mutagenic call (Strain/Indicator: TA100, Metabolic Activation: HAMSTER, LIVER, S-9, AROCLOR 1254 (10 OR 30%), Method: PREINCUBATION): inactive; negative
- mutagenic call [3]: inactive; negative
- mutagenic call (Strain/Indicator: TA100, Metabolic Activation: RAT, LIVER, S-9, AROCLOR 1254 (10 OR 30%), Method: PREINCUBATION): inactive; negative
- mutagenic call (Strain/Indicator: TA1535, Metabolic Activation: HAMSTER, LIVER, S-9, AROCLOR 1254 (10 OR 30%), Method: PREINCUBATION): inactive; negative
- mutagenic call [4]: inactive; negative
- mutagenic call (Strain/Indicator: TA1535, Metabolic Activation: RAT, LIVER, S-9, AROCLOR 1254 (10 OR 30%), Method: PREINCUBATION): inactive; negative
- mutagenic call (Strain/Indicator: TA1537, Metabolic Activation: HAMSTER, LIVER, S-9, AROCLOR 1254 (30%), Method: PREINCUBATION): inactive; negative
- mutagenic call [5]: inactive; negative
- mutagenic call (Strain/Indicator: TA1537, Metabolic Activation: RAT, LIVER, S-9, AROCLOR 1254 (30%), Method: PREINCUBATION): inactive; negative

SMILES: CCCCCCCCCCCCCOC(=O)c1ccccc1C(=O)OCCCCCCCCCCCCC
- mutagenic call (Strain/Indicator: TA98, Metabolic Activation: HAMSTER, LIVER, S-9, AROCLOR 1254 (10%), Method: PREINCUBATION): inactive; negative
- mutagenic call [2]: inactive; negative
- mutagenic call (Strain/Indicator: TA98, Metabolic Activation: RAT, LIVER, S-9, AROCLOR 1254 (10%), Method: PREINCUBATION): inactive; negative
- mutagenic call (Strain/Indicator: TA100, Metabolic Activation: HAMSTER, LIVER, S-9, AROCLOR 1254 (10%), Method: PREINCUBATION): inactive; negative
- mutagenic call [3]: inactive; negative
- mutagenic call (Strain/Indicator: TA100, Metabolic Activation: RAT, LIVER, S-9, AROCLOR 1254 (10%), Method: PREINCUBATION): inactive; negative
- mutagenic call (Strain/Indicator: TA1535, Metabolic Activation: HAMSTER, LIVER, S-9, AROCLOR 1254 (10%), Method: PREINCUBATION): inactive; negative
- mutagenic call [4]: inactive; negative
- mutagenic call (Strain/Indicator: TA1535, Metabolic Activation: RAT, LIVER, S-9, AROCLOR 1254 (10%), Method: PREINCUBATION): inactive; negative
- mutagenic call (Strain/Indicator: TA1537, Metabolic Activation: HAMSTER, LIVER, S-9, AROCLOR 1254 (10%), Method: PREINCUBATION): inactive; negative
- mutagenic call [5]: inactive; negative
- mutagenic call (Strain/Indicator: TA1537, Metabolic Activation: RAT, LIVER, S-9, AROCLOR 1254 (10%), Method: PREINCUBATION): inactive; negative

SMILES: O=[N+]([O-])c1ccc(-c2ccccc2)c([N+](=O)[O-])c1
- mutagenic call [2]: active; positive
- mutagenic call (Strain/Indicator: TA98, Metabolic Activation: RAT, LIVER, S-9, PCB (10%), Method: PREINCUBATION): active; positive

SMILES: NC(=O)CCC(=O)Nc1ccc(Cl)c(Cl)c1Cl
- mutagenic call (Strain/Indicator: TA98, Metabolic Activation: NONE, Method: STANDARD PLATE): inactive; negative
- mutagenic call (Strain/Indicator: TA98, Metabolic Activation: RAT, LIVER, S-9, AROCLOR 1254, Method: STANDARD PLATE): inactive; negative
- mutagenic call [1]: inactive; negative
- mutagenic call (Strain/Indicator: TA100, Metabolic Activation: RAT, LIVER, S-9, AROCLOR 1254, Method: STANDARD PLATE): inactive; negative
